Results on eleven compounds are retold here after ChEMBL document CHEMBL5331060, “Bisindole natural products: A vital source for the development of new anticancer drugs” (Eur J Med Chem, 2022).

Assay type in all cases: functional, cell-based
The nature of test [1]: Antiproliferative activity against human MDA-MB cells assessed as inhibition of cell growth.
The subject of another test is HCT-8. As to the kind of experiment: Antiproliferative activity against human HCT-8 cells assessed as inhibition of cell growth.
Test [2] relates to A549. As to the kind of experiment: Antiproliferative activity against human A549 cells assessed as inhibition of cell growth.
The test system of test [3] is A549. As to the kind of experiment: Antiproliferative activity against human A549 cells assessed as inhibition of cell growth incubated for 48 hrs by MTT assay. To be noted: A549, 48 h.
Test [4] concerns MCF7. As to the kind of experiment: Antiproliferative activity against human MCF7 cells assessed as inhibition of cell growth incubated for 48 hrs by MTT assay. To be noted: MCF7, 48 h. In general terms: Formazan colour is commonly taken as a measure of viable cells.
For a further test, the system named is SK-BR-3. As to the kind of experiment: Antiproliferative activity against human SK-BR-3 cells assessed as inhibition of cell growth incubated for 48 hrs by MTT assay. To be noted: SK-BR-3, 48 h.
Test [5] deals with HL-60. As to the kind of experiment: Antiproliferative activity against human HL-60 cells assessed as inhibition of cell growth incubated for 48 hrs by MTT assay. The conditions noted are these: HL-60, 48 h.
Test [6] concerns SMMC-7721. As to the kind of experiment: Antiproliferative activity against human SMMC-7721 cells assessed as inhibition of cell growth incubated for 48 hrs by MTT assay. To be noted: SMMC-7721, 48 h.
In test [7] the test system is PANC-1. As to the kind of experiment: Antiproliferative activity against human PANC-1 cells assessed as inhibition of cell growth incubated for 48 hrs by MTT assay. The conditions noted are these: PANC-1, 48 h.
In a further test the test system is HeLa. As to the kind of experiment: Antiproliferative activity against human HeLa cells assessed as inhibition of cell growth incubated for 48 hrs by MTS assay.
Test [8] deals with A549. As to the kind of experiment: Antiproliferative activity against human A549 cells assessed as inhibition of cell growth incubated for 48 hrs by MTS assay. To be noted: A549, 48 h.
Test [9] has as its system HepG2. As to the kind of experiment: Antiproliferative activity against human HepG2 cells assessed as inhibition of cell growth incubated for 48 hrs by MTS assay. To be noted: HepG2, 48 h.
For test [10], the system named is SMMC-7721. As to the kind of experiment: Antiproliferative activity against human SMMC-7721 cells assessed as inhibition of cell growth incubated for 48 hrs by MTS assay. To be noted: SMMC-7721, 48 h.
Test [11] deals with HepG2. As to the kind of experiment: Antiproliferative activity against human HepG2 cells assessed as inhibition of cell growth incubated for 24 hrs by colorimetric method. The conditions noted are these: HepG2, 24 h.
The subject of a further test is P388. As to the kind of experiment: Antiproliferative activity against mouse P388 cells assessed as inhibition of cell growth.
Test [12] has as its system HT-29. As to the kind of experiment: Antiproliferative activity against human HT-29 cells assessed as inhibition of cell growth.
Test [13] relates to MCF7. As to the kind of experiment: Antiproliferative activity against human MCF7 cells assessed as inhibition of cell growth.
The test system of a further test is HCT-116. As to the kind of experiment: Antiproliferative activity against human HCT-116 cells assessed as inhibition of cell growth.
The subject of test [14] is HL-60. As to the kind of experiment: Antiproliferative activity against human HL-60 cells assessed as inhibition of cell growth.
The test system of the next test is CAKI-2. As to the kind of experiment: Antiproliferative activity against human CAKI-2 cells assessed as inhibition of cell growth incubated for 24 hrs by SRB assay. To be noted: CAKI-2, 24 h. On the technique in general: In SRB staining, fixed cells bind dye roughly in proportion to their protein.
In a further test the test system is LS174T. As to the kind of experiment: Antiproliferative activity against human LS174T cells assessed as inhibition of cell growth incubated for 24 hrs by SRB assay.
Test [15] in a line: Antiproliferative activity against human StMl1 1a cells assessed as inhibition of cell growth incubated for 24 hrs by SRB assay.
In test [16] the test system is HT-29. As to the kind of experiment: Antiproliferative activity against human HT-29 cells assessed as inhibition of cell growth incubated for 48 hrs by SRB assay. The conditions noted are these: HT-29, 48 h.
The subject of test [17] is MCF7. As to the kind of experiment: Antiproliferative activity against human MCF7 cells assessed as inhibition of cell growth incubated for 24 hrs by SRB assay. The conditions noted are these: MCF7, 24 h.
Test [18] deals with PANC-1. As to the kind of experiment: Antiproliferative activity against human PANC-1 cells assessed as inhibition of cell growth incubated for 72 hrs by MTT assay. To be noted: PANC-1, 72 h.
Another test relates to MIA PaCa-2. As to the kind of experiment: Antiproliferative activity against human MIA PaCa-2 cells assessed as inhibition of cell growth incubated for 72 hrs by MTT assay. The conditions noted are these: MIA PaCa-2, 72 h.
Another test relates to BXPC-3. As to the kind of experiment: Antiproliferative activity against human BXPC-3 cells assessed as inhibition of cell growth incubated for 72 hrs by MTT assay. To be noted: BXPC-3, 72 h.
The subject of the next test is ASPC1. As to the kind of experiment: Antiproliferative activity against human ASPC1 cells assessed as inhibition of cell growth incubated for 72 hrs by MTT assay. The conditions noted are these: ASPC1, 72 h.
For test [19], the system named is SMMC-7721. As to the kind of experiment: Antiproliferative activity against human SMMC-7721 cells assessed as inhibition of cell growth.
For a further test, the system named is SW480. As to the kind of experiment: Antiproliferative activity against human SW480 cells assessed as inhibition of cell growth.

Each structure is given as a SMILES string. In brackets after ≈: the same amount, converted by molar mass.

A word on the IC50: it is the concentration that inhibits the measured activity by half. For `CN1C[C@H](c2c[nH]c3c(Br)c(Br)cc(O)c23)NC[C@H]1c1c[nH]c2cc(Br)ccc12`, the IC50 in test [1] amounted to 1 µg/mL (≈ 1.71 µM); with HCT-8, 1 µg/mL (≈ 1.71 µM); in the test with A549 [2], 1 µg/mL.

For `CCC12CCCN3CC[C@@]4(OC)c5cc([C@@H]6C[C@@]7(CC)CCCN8CCc9c(n6c6ccccc96)[C@H]87)c(O)cc5N(CCC1)C324` (some centres undefined), the IC50 in the test with A549 [3], with MCF7 [4], in the test on SK-BR-3, in the test with HL-60 [5], in the test on SMMC-7721 [6] and in the test with PANC-1 [7] was 500 nM in each case.

As for `CC[C@]12CCCn3c(Cc4cc5c6n4CCC[C@]6(CC)CCC(=O)Nc4ccccc4-5)cc(c31)-c1ccccc1NC(=O)CC2`, the IC50 in the test on HeLa was 4.4 µM; with A549 [8], 16.2 µM; with HepG2 [9], 7.02 µM; in the test on SMMC-7721 [10], 4.31 µM.

Turning to `COC(=O)/C1=C/c2c([nH]c3ccccc23)/C(C(=O)OC)=C\c2c1[nH]c1ccccc21` [CAULERPIN], the IC50 in the test with HepG2 [11] came out at 24.6 µg/mL (≈ 61.7 µM).

Turning to `COc1cc2c(cc1CC(C(C)=O)[C@@H]1C[C@H]3c4c(c5ccccc5n4C)C[C@@H]([C@@H]1CO)N3C)c1c(n2C)[C@@H]2C[C@H]3C(C(C)=O)=COC[C@H]3[C@H](C1)N2C` (some centres undefined), the IC50 with P388 is 12.3 µg/mL (≈ 17.4 µM).

Consider `COC(=O)C1=CN2CCc3c([nH]c4ccccc34)[C@@H]2C[C@@H]1C1=CO[C@@H]([C@H]2[C@@H]3CCN4CC[C@@]5(C(=C3C(=O)OC)Nc3ccccc35)[C@@H]24)C[C@@H]1C`, for which the results for the IC50 in the test on HT-29 [12] and in the test with A549 [2] were 2.05 nM and 3.09 nM, respectively.

With `C=C1[C@H]2C[C@@H]3N(CC[C@@]34c3cccc5c3N(C[C@H]3[C@H]6C[C@@H]7N(CC[C@@]78c7ccccc7N[C@@]538)C[C@H]6CC)[C@@H]14)C[C@H]2CC`, the IC50 in the test on MCF7 [13] stood at 3800 nM; with A549 [2] it was 3800 nM; in the test with HCT-116 it was 3.8 µM; in the test on HL-60 [14], 3800 nM.

`C/C=C1/CN2CC[C@@]34C[C@H]5[C@@H]6C[C@H]7c8c(c9ccccc9n8C)C[C@@H]([C@@H]6CO[C@@]5(C)O[C@@]35[C@@H]2C[C@@H]1[C@@H](C(=O)OC)N5c1ccccc14)N7C`: the IC50 with CAKI-2 worked out at 2000 nM; in the test on LS174T, 2000 nM; in test [15] it was 2000 nM; with HT-29 [16] it was 8 µM; in the test on MCF7 [17], 2000 nM.

As for `N=C(N)NCCSc1nc(-c2c[nH]c3cc(Br)ccc23)cnc1-c1c[nH]c2cc(Br)ccc12`, the IC50 in the test with PANC-1 [18] came out at 18 µM; in the test with MIA PaCa-2, 26 µM; in the test with BXPC-3, 14 µM; in the test on ASPC1, 27 µM.

`C/C=C1\CN(C)[C@H]2Cc3c([nH]c4ccccc34)[C@H](c3c(O)ccc4c5c([nH]c34)[C@]3(C(=O)OC)C[C@@H]4C[C@H](CC)[C@@H]3N(CC5)C4)C[C@H]1[C@]2(CO)C(=O)OC`: the IC50 in the test on MCF7 [13], in the test with SMMC-7721 [19], in the test with A549 [2], in the test on SW480 and in the test on HL-60 [14] was 170 nM throughout.

Regarding `C/C=C1/CN2CC[C@@H]3c4ccccc4N4[C@H](C(=O)OC)[C@H]1C[C@H]2[C@]34/C=C/C1=COC[C@@H]2[C@H]1C[C@H]1c3c(c4ccccc4n3C)C[C@@H]2N1C`, the IC50 (in the test on CAKI-2; in the test on LS174T; in test [15]; in the test with MCF7 [17]) was 2000 nM each time.
